Experimental data: patent publication US20240299414A1, “SUBCUTANEOUS OR INTRAMUSCULAR INJECTION FORMULATIONS OF ILOPROST” (EICOS SCIENCES, INC., priority 2020, published 2024)
Read-outs that look alike come from different tables or passages of the source.

Assays:
[1] = Safety and tolerability in the IV iloprost study (adverse events, vital signs, ECG, laboratory); type: in vivo, human
Procedure: On Day 1, study drug was initiated at a starting dose of 0.5 ng/kg/min, and dose increases occurred every 30 minutes (±5 minutes) in increments of 0.5 ng/kg/min up to 2.0 ng/kg/min or the individual tolerated dose. If dose-limiting adverse events (e.g., headache, flushing, jaw pain, myalgia, nausea, or vomiting) occurred that could not be tolerated by the subject, or if the subject experienced symptomatic hypotension, then the dose was reduced in a step-wise manner by 0.5 ng/kg/min every 30 minutes (±5 minutes) until a tolerated dose was determined or the infusion was stopped until the symptoms resolved at which point the study drug was reinitiated at a previously tolerated dose. If symptomatic hypotension or a dose-limiting adverse event occurred during administration of iloprost at the starting dose (i.e., 0.5 ng/kg/min), the infusion was reduced to 0.25 ng/kg/min. If the dose of 0.25 ng/kg/min was not tolerated due to symptomatic hypotension or if a dose-limiting adverse event occurred, the study drug was discontinued, and re-initiation of the infusion could have been attempted after the event had resolved or had been treated. Blood pressure and heart rate were monitored 15 minutes (±5 minutes) prior to and after all dose changes. The maximum tolerated dose was maintained for the remaining 6-hour daily period. At the end of the 6-hour infusion period, the dose was stopped. Subjects were to be monitored for up to 1 hour after completion of study drug infusion (i.e., vital signs were obtained 15 minutes [+5 minutes] and 1 hour [+15 minutes] after completion of the infusion).
Safety parameters included adverse events, physical examination findings, vital sign measurements (heart rate and blood pressure), 12-lead electrocardiogram (ECG) findings, and standard clinical laboratory measurements (chemistry and hematology).

[2] = cited from earlier work

For CC#CCC(C)[C@H](O)/C=C/[C@@H]1[C@H]2C/C(=C/CCCC(=O)O)C[C@H]2C[C@H]1O (stereo partly drawn) [Iloprost, (5E)-5-[(3aS,4R,5R,6aS)-5-hydroxy-4-[(E,3S)-3-hydroxy-4-methyloct-1-en-6-ynyl]-3,3a,4,5,6,6a-hexahydro-1H-pentalen-2-ylidene]pentanoic acid], the “TEAE abdominal pain, n [%]” value ([1]; human, in vivo) was 4 [23.5%] subjects, the “TEAE flushing, n [%]” value ([1]; human, in vivo) was 5 [29.4%] subjects and the “TEAE headache, n [%]” value ([1]; human, in vivo) was 16 [94.1%] subjects. The “TEAE nausea, n [%]” value ([1]; human, in vivo) was 11 [64.7%] subjects, the “subjects who experienced a TEAE, n (%)” value ([1]; human, in vivo) was 17 (100.0%) subjects and the “subjects with TEAEs considered severe by the Investigator, n (%)” value ([1]; human, in vivo) was “Two (11.8%) subjects”. For the same compound, the bradycardia or tachycardia ([1]; in vivo) was “no bradycardia or tachycardia reported”, the “changes in chemistry or hematology laboratory values” ([1]; in vivo) was “no clinically significant changes” and the “hypertensive or hypotensive events” value ([1]; in vivo) was “no hypertensive or hypotensive events reported”. For the same compound, the “SAE, AESI, TEAE leading to discontinuation of study drug, or TEAE leading to death” value ([1]; whole study) was “No subjects experienced”, the non-compartmental clearance ([2]; 1 ng/kg/min for 45 minutes) was 21 mL/min/kg and the non-compartmental clearance ([2]; 2 ng/kg/min for 4 hours) was 24 mL/min/kg. For the same compound, the non-compartmental clearance ([2]; 3 ng/kg/min for 45 minutes) was 20.6 mL/min/kg.
